From patent US20240132511A1, “TREATMENTS OF PRADER-WILLI SYNDROME” (Neuren Pharmaceuticals Limited, priority 2021, published 2024) come the findings set out here.

The test concerns Magel2-null mice. Put plainly: Insulin levels in female Magel2-null mice. In kind it is in vivo, mouse. The arrangement: key to Insulin, significance: **** = p < 0.0001; ns = not significant. As for the experimental part:
In vivo experiments were conducted in C57BL/6-Magel2tm1Stw/J (Magel2-null) mice at age P60 and their wild-type littermates during the light phase (littermates that were wild-type for Magel2 were used as controls). Ten mice per treatment group were used for studies 1 and 2, and six mice per group for study 3. In study 1: C57BL/6-Magel2tm1Stw/J (Magel2-null) mice were assessed on behavioral assays. Study 2 tested the efficacy of cG-2-AllylP in treating obesity and insulin levels in Magel2-null mice. Study 3 tested the IGF-1 level in Magel2-null mice. Because human beings have the same genetic abnormality, studies of Magel2-null mice are reasonably predictive of effects of compounds of Formulas I, II, III and IV in human beings with Prader-Willi Syndrome.
Testing was performed during the light phase of the circadian cycle, with the order of testing being determined by the principle of conducting the most stressful tests last. Assays were designed to reproduce and expand on the original behavioral characterization of Magel2-null mice. Magel2-null and wild-type control mice were dosed once daily for 6 weeks prior to testing and tested 30 minutes following a dose of cG-2-AllylP (NNZ2591). Study groups and the treatment matrix are described in Table 2 below.
Prader-Willi Syndrome is associated with metabolic and hormonal abnormalities in humans. Magel2-null mice recapitulate some of the metabolic and hormonal aspects of humans with Prader-Willi Syndrome. Experiments were conducted to determine if cG-2-AllylP could have a normalizing effect in metabolic and hormonal aspects.
Because female Magel2-null mice present a significant increase in body weight compared with their littermate wild-type controls, female Magel2-null mice were used for this study.
Insulin was measured for each group.

The mark [1] stands for this setting: Magel2-null + NNZ2591 200 mg/kg.

Take `C=CCC12CCCN1C(=O)CNC2=O` [cG-2-AllylP, (8aS)-Allyl-hexahydropyrrolo[1,2-a]pyrazine-1,4-dione]: the “Insulin (mean ± SEM)” value by setting is: (Magel2-null + NNZ2591 100 mg/kg) 143 pM; under setting [1], 119 pM; (WT + NNZ2591 100 mg/kg) 112 pM; (WT + NNZ2591 200 mg/kg) 115 pM. Under setting [1], the “Insulin, significance” value was “(ns)”.
